Assay results published in US20240025906A1 (NEURON23, INC., priority 2022, published 2024).

What was measured:
[1] = target: T1, TYK2 JH2 (Homo sapiens, UniProt P29597); experiment: TYK2 JH2 binding assay (KINOMEscan KdELECT competitive binding); conditions: TYK2 JH2 domain, DiscoverX KINOMEscan KdELECT (Assay A); read-out: Biochemical TYK2_DiscoverX_JH2_BND_Kd
T1 construct: purchased DiscoverX (KINOMEscan KdELECT service); host or cells: E. coli BL21-derived (T7 phage display) or HEK-293
Method in brief: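 Beads carrying a biotinylated ligand were mixed with tagged JH2 kinase and compound (11 points, 3-fold steps, 0.9% DMSO) and shaken 1 h at room temperature. After washing, kinase was released with 0.5 μM untagged ligand over 30 min and measured by qPCR to derive Kd.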

[2] = system: JAK1/TYK2 pSTAT5 (Tyr694/699) in THP-1 cell line; experiment: IFNa-stimulated JAK1/TYK2 pSTAT5 (Tyr694/699) inhibition cellular assay, AlphaLISA; assay type: cell-based; conditions: Homo sapiens; THP-1 cells, IFNa-stimulated, AlphaLISA (Assay B); read-out: Cellular_THP1_IFNa-pSTATS_TYK2
Method in brief: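 An eight-point 6-fold titration of compound (0.04–10000 nM final) is given to THP-1 cells for 1 h before 30 min of IFNa exposure. Phospho-STAT5 is read by AlphaLISA at 615 nm. IC50 values are derived by logistic regression with bottom set to 0 and Hill slope set to −1.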

T1 sequence (P29597 589-875 limits assumed): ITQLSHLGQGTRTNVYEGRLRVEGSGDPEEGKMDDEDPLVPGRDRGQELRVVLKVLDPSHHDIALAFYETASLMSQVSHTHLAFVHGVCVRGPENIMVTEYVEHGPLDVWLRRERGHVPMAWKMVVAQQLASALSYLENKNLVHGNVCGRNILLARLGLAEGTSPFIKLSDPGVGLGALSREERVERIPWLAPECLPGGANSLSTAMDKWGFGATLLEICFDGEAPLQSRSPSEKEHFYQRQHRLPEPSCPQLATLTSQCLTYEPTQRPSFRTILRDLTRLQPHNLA

Kd [1] [nM] | IC50 [2] [nM] | Structure (SMILES)
≤ 100 | ≤ 500 | CNc1ncc(-c2nc3cc(N4CCOCC(C)C4)ccc3o2)c2cc(NC(=O)C3CC3)ncc12 (centres unmarked) [Example 335, N-(5-(5-(6-methyl-1,4-oxazepan-4-yl)benzo[d]oxazol-2-yl)-8-(methylamino)-2,7-naphthyridin-3-yl)cyclopropanecarboxamide]
≤ 100 | ≤ 500 | CNc1ncc(-c2nc3cc(OCC4COC4)ccc3o2)c2cc(NC(=O)C3CC3)ncc12 [Example 336, N-(8-(methylamino)-5-(5-(oxetan-3-ylmethoxy)benzo[d]oxazol-2-yl)-2,7-naphthyridin-3-yl)cyclopropanecarboxamide]
≤ 100 | ≤ 500 | CNc1ncc(-c2nc3cc(OCF)ccc3o2)c2cc(NC(=O)C3CC3)ncc12 [Example 339, N-(5-(5-(fluoromethoxy)benzo[d]oxazol-2-yl)-8-(methylamino)-2,7-naphthyridin-3-yl)cyclopropanecarboxamide]
≤ 100 | ≤ 500 | CNc1ncc(-c2nc3cc(C4=CCOCC4)ccc3o2)c2cc(NC(=O)C3CC3)ncc12 [Example 342, N-(5-(5-(3,6-dihydro-2H-pyran-4-yl)benzo[d]oxazol-2-yl)-8-(methylamino)-2,7-naphthyridin-3-yl)cyclopropanecarboxamide]
≤ 100 | ≤ 500 | CNc1ncc(-c2nc3cc(O[C@@H](C)COC)ccc3o2)c2cc(NC(=O)C3CC3)ncc12 [Example 350, (S)—N-(5-(5-((1-methoxypropan-2-yl)oxy)benzo[d]oxazol-2-yl)-8-(methylamino)-2,7-naphthyridin-3-yl)cyclopropanecarboxamide]
≤ 100 | ≤ 500 | CNc1ncc(-c2nc3cc(O[C@H](C)COC)ccc3o2)c2cc(NC(=O)C3CC3)ncc12 [Example 351, (R)—N-(5-(5-((1-methoxypropan-2-yl)oxy)benzo[d]oxazol-2-yl)-8-(methylamino)-2,7-naphthyridin-3-yl)cyclopropanecarboxamide]
≤ 100 | ≤ 500 | CNc1ncc(-c2nc3cc(OCC(C)(C)N4CCOCC4)ccc3o2)c2cc(NC(=O)C3CC3)ncc12 [Example 352, N-(5-(5-(2-methyl-2-morpholinopropoxy)benzo[d]oxazol-2-yl)-8-(methylamino)-2,7-naphthyridin-3-yl)cyclopropanecarboxamide]
≤ 100 | ≤ 500 | CNc1ncc(-c2nc3cnccc3o2)c2cc(NC(=O)C3CC3)ncc12 [Example 356, N-(8-(methylamino)-5-(oxazolo[4,5-c]pyridin-2-yl)-2,7-naphthyridin-3-yl)cyclopropanecarboxamide]
≤ 100 | ≤ 500 | CNc1ncc(-c2nc3ncccc3o2)c2cc(NC(=O)C3CC3)ncc12 [Example 358, N-(8-(methylamino)-5-(oxazolo[4,5-b]pyridin-2-yl)-2,7-naphthyridin-3-yl)cyclopropanecarboxamide]
≤ 100 | ≤ 500 | CNc1ncc(-c2nc3cc(C4CCN(C)CC4)ccc3o2)c2cc(NC(=O)C3CC3)ncc12 [Example 361, N-(8-(methylamino)-5-(5-(1-methylpiperidin-4-yl)benzo[d]oxazol-2-yl)-2,7-naphthyridin-3-yl)cyclopropanecarboxamide]
≤ 100 | ≤ 500 | [2H]C([2H])([2H])Nc1ncc(-c2nc3cc(OC)ccc3o2)c2cc(NC(=O)C3CC3)ncc12 [Example 362, N-(5-(5-methoxybenzo[d]oxazol-2-yl)-8-((methyl-d3)amino)-2,7-naphthyridin-3-yl)cyclopropanecarboxamide]

The remaining lines, values behind:

Structure (SMILES) | Kd [1] [nM] | IC50 [2] [nM]
CNc1ncc(-c2nc3cc(OCC4CCC4)ccc3o2)c2cc(NC(=O)C3CC3)ncc12 [Example 337, N-(5-(5-(cyclobutylmethoxy)benzo[d]oxazol-2-yl)-8-(methylamino)-2,7-naphthyridin-3-yl)cyclopropanecarboxamide] | ≤ 100 | > 500
CNc1ncc(-c2nc3cc(OCC#N)ccc3o2)c2cc(NC(=O)C3CC3)ncc12 [Example 338, N-(5-(5-(cyanomethoxy)benzo[d]oxazol-2-yl)-8-(methylamino)-2,7-naphthyridin-3-yl)cyclopropanecarboxamide] | ≤ 100 | ≤ 500
CNc1ncc(-c2nc3cc(Oc4ccncc4)ccc3o2)c2cc(NC(=O)C3CC3)ncc12 [Example 340, N-(8-(methylamino)-5-(5-(pyridin-4-yloxy)benzo[d]oxazol-2-yl)-2,7-naphthyridin-3-yl)cyclopropanecarboxamide] | ≤ 100 | ≤ 500
CNc1ncc(-c2nc3cc(Oc4ccn(C)n4)ccc3o2)c2cc(NC(=O)C3CC3)ncc12 [Example 341, N-(5-(5-((1-methyl-1H-pyrazol-3-yl)oxy)benzo[d]oxazol-2-yl)-8-(methylamino)-2,7-naphthyridin-3-yl)cyclopropanecarboxamide] | ≤ 100 | ≤ 500
CNc1ncc(-c2nc3cc(C4CCCO4)ccc3o2)c2cc(NC(=O)C3CC3)ncc12 (centres unmarked) [Example 343, N-(8-(methylamino)-5-(5-(tetrahydrofuran-2-yl)benzo[d]oxazol-2-yl)-2,7-naphthyridin-3-yl)cyclopropanecarboxamide] | ≤ 100 | ≤ 500
CNc1ncc(-c2nc3cc(CCC#N)ccc3o2)c2cc(NC(=O)C3CC3)ncc12 [Example 344, N-(5-(5-(2-cyanoethyl)benzo[d]oxazol-2-yl)-8-(methylamino)-2,7-naphthyridin-3-yl)cyclopropanecarboxamide] | ≤ 100 | ≤ 500
CNc1ncc(-c2nc3cc(N4CCOCC4)ccc3o2)c2cc(NC(=O)C3CC3)ncc12 [Example 345, N-(8-(methylamino)-5-(5-morpholinobenzo[d]oxazol-2-yl)-2,7-naphthyridin-3-yl)cyclopropanecarboxamide] | ≤ 100 | ≤ 500
CNc1ncc(-c2nc3cc(OC4CCC4C(C)(C)OC)ccc3o2)c2cc(NC(=O)C3CC3)ncc12 (centres unmarked) [Example 346, N-(5-(5-(2-(2-methoxypropan-2-yl)cyclobutoxy)benzo[d]oxazol-2-yl)-8-(methylamino)-2,7-naphthyridin-3-yl)cyclopropanecarboxamide] | ≤ 100 | ≤ 500
CNc1ncc(-c2nc3cc(O[C@H]4C[C@@H](COC)C4)ccc3o2)c2cc(NC(=O)C3CC3)ncc12 [Example 347, N-(5-(5-((1s,3s)-3-(methoxymethyl)cyclobutoxy)benzo[d]oxazol-2-yl)-8-(methylamino)-2,7-naphthyridin-3-yl)cyclopropanecarboxamide] | ≤ 100 | ≤ 500
CNc1ncc(-c2nc3cc(O[C@H]4C[C@H](COC)C4)ccc3o2)c2cc(NC(=O)C3CC3)ncc12 [Example 348, N-(5-(5-((1r,3r)-3-(methoxymethyl)cyclobutoxy)benzo[d]oxazol-2-yl)-8-(methylamino)-2,7-naphthyridin-3-yl)cyclopropanecarboxamide] | ≤ 100 | ≤ 500
CNc1ncc(-c2nc3cc(OCC45CCCN4CCC5)ccc3o2)c2cc(NC(=O)C3CC3)ncc12 [Example 349, N-(8-(methylamino)-5-(5-((tetrahydro-1H-pyrrolizin-7a(5H)-yl)methoxy)benzo[d]oxazol-2-yl)-2,7-naphthyridin-3-yl)cyclopropanecarboxamide] | ≤ 100 | ≤ 500
CNc1ncc(-c2nc3cc(OCC[S+](C)[O-])ccc3o2)c2cc(NC(=O)C3CC3)ncc12 (centres unmarked) [Example 353, N-(8-(methylamino)-5-(5-(2-(methylsulfinyl)ethoxy)benzo[d]oxazol-2-yl)-2,7-naphthyridin-3-yl)cyclopropanecarboxamide] | ≤ 100 | ≤ 500
CNc1ncc(-c2nc3cc(OCCS(C)(=O)=O)ccc3o2)c2cc(NC(=O)C3CC3)ncc12 [Example 354, N-(8-(methylamino)-5-(5-(2-(methylsulfonyl)ethoxy)benzo[d]oxazol-2-yl)-2,7-naphthyridin-3-yl)cyclopropanecarboxamide] | ≤ 100 | ≤ 500
CNc1ncc(-c2nc3ccc(N4CCOCC4)cc3o2)c2cc(NC(=O)C3CC3)ncc12 [Example 355, N-(8-(methylamino)-5-(6-morpholinobenzo[d]oxazol-2-yl)-2,7-naphthyridin-3-yl)cyclopropanecarboxamide] | ≤ 100 | ≤ 500
CNc1ncc(-c2nc3ccncc3o2)c2cc(NC(=O)C3CC3)ncc12 [Example 357, N-(8-(methylamino)-5-(oxazolo[5,4-c]pyridin-2-yl)-2,7-naphthyridin-3-yl)cyclopropanecarboxamide] | ≤ 100 | > 500
CNc1ncc(-c2nc3cc(C4CCNCC4)ccc3o2)c2cc(NC(=O)C3CC3)ncc12 [Example 359, N-(8-(methylamino)-5-(5-(piperidin-4-yl)benzo[d]oxazol-2-yl)-2,7-naphthyridin-3-yl)cyclopropanecarboxamide 2,2,2-trifluoroacetate] | ≤ 100 | ≤ 500
CNc1ncc(-c2nc3cc(C4CCN(C5COC5)CC4)ccc3o2)c2cc(NC(=O)C3CC3)ncc12 [Example 360, N-(8-(methylamino)-5-(5-(1-(oxetan-3-yl)piperidin-4-yl)benzo[d]oxazol-2-yl)-2,7-naphthyridin-3-yl)cyclopropanecarboxamide] | ≤ 100 | ≤ 500
